Experimental data: patent US20250130239A1, “PROTEIN DEGRADER” (University of Dundee, priority 2021, published 2025)

What was measured:
[1] = molecular target: T1, Brd3 (Homo sapiens, UniProt Q15059); experiment: Off-target degradation of Brd3 (western blot) in BromoTag-Brd2 HEK293 cells; type: cell-based
T1 construct: endogenous Brd3 and Brd4; endogenous in cells; host or cells: heterozygous BromoTag-Brd2 HEK293 cells
Protocol: Dose-response Degradation Assays. All dose-response degradation assays were performed on the genotype verified heterozygous BromoTag-Brd2 HEK293 cell line. Heterozygous BromoTag-Brd2 HEK293 cells were plated at a density of 5×10^5 cells per well of a six healthy plate a day before initiation of the titration experiment. PROTAC compounds were dissolved in DMSO at a concentration of 10 mM, from these stock concentrations, PROTAC compounds were diluted to appropriate concentrations using DMSO in the range of 10 μM-1 nM. The compounds were then added to a 2 mL of DMEM (Invitrogen, Carlsebad, CA, USA) supplemented with 10% (v/v) Fetal bovine serum (FBS) (Thermo Fisher, Waltham, MA, USA) and 1% (v/v) penicillin/streptomycin (pen/strep) (#15140122, Thermo Fisher, Waltham, MA, USA) and added to the cells at initiation of the experiment. Control compounds such as MZ1, cis-MZ1 were similarly dissolved in DMSO to the appropriate concentration. […]
(§1) Western Blotting. […] Total protein quantity was determined using the BCA protein assay (#23225, Pierce, Rockford, Illinois). Protein concentration was determined using the BCA assay (ThermoFisher Scientific, 23225). […] All western blots were analysed for band intensities using Image Lab from Bio-Rad (LI-COR, Biosciences). The data extracted from these blots were then plotted and analysed using Prism (v. 8.2.0, GraphPad).

[2] = molecular target: T2, VHL, compound preincubated with Brd4^BD2 L387A (Homo sapiens, UniProt O60885+P40337, L387A); experiment: Fluorescence polarization competitive binding assay, ternary complex binding; conditions: displacement of HIF-1a peptide probe, read-out: ternary binding affinity Kd
T2 construct: N-terminally Hiss-tagged VHL (54-213); N-terminally His6-tagged Brd4-BD2^L387A (333-460) was expressed in E. coli; His6 (N, cleaved yes); made in house; host or cells: E. coli
Protocol: (§2) Protein Expression and Purification. […] The complex was further purified by anion exchange followed by gel filtration chromatography.
(§3) Fluorescence Polarization Binding Assay. […] All components were dissolved from stock solutions using 100 mM Bis-Tris propane, 100 mM NaCl, 1 mM DTT, pH 7.0, to yield a final assay volume of 15 μL. DMSO was added as appropriate to ensure a final concentration of 2% v/v. […] Percentage displacement values were obtained by normalization of controls were plotted against Log[Compound]. IC50 values were determined for each titration using nonlinear regression analysis with Prism (v. 9.1.0, GraphPad). […] Cooperativity values (a) for each PROTAC were calculated using the ratio: α=binary Kd (−bromodomain)/ternary Kd (+bromodomain).

[3] = molecular target: T3, BromoTag-Brd2 (Homo sapiens, UniProt O60885+P40337, L387A); experiment: Time-course degradation assay in heterozygous BromoTag-Brd2 HEK293 cells; type: cell-based; conditions: 500 nM 47, 1 μM 48; over 36 h
T3 construct: comprising residues 368-440 of human Brd4; Brd2 (endogenous protein, fusion partner in the same polypeptide); eGFP-P2A (upstream marker in the knock-in cassette) (N, cleaved yes); expressed in transfected cells; host or cells: HEK293, heterozygous CRISPR knock-in at the endogenous BRD2 locus
Protocol: Time-course Degradation Assay. Time-course degradation assays using PROTACs AGB1, AGB2, and AGB3 were performed on the genotype verified heterozygous BromoTag-Brd2 HEK293 cell line. Heterozygous BromoTag-Brd2 HEK293 cells were plated at a density of 5×10^5 cells per well of a 6 healthy plate a day prior to initiation of the Timecourse assay. PROTAC's AGB1 & AGB2 were diluted in DMSO to a concentration of 1 mM prior to being further diluted 1:2000 in 2 mL of DMEM to a concentration of 500 nM per timepoint. PROTAC AGB3 was diluted in DMSO to a concentration of 2 mM prior to being further diluted 1:2000 in 2 mL of DMEM to a concentration of 1 μM per timepoint. Timepoint range was between 0-36 h. Treatment was applied in a staggered fashion to enable all timepoints to be harvested at the same time.
Western Blotting. All cells were harvested on ice with RIPA lysis, and extraction buffer (ThermoFisher Scientific, 89901) supplemented with protease inhibitor cocktail (Merck, 11697498001) and Benzonase® Nuclease (Sigma, E1014) before being store at −20° C. prior to use. Total protein quantity was determined using the BCA protein assay (#23225, Pierce, Rockford, Illinois). Protein concentration was determined using the BCA assay (ThermoFisher Scientific, 23225). Samples were then prepared and loaded onto NuPAGE™ 4-12% Bis-Tris Midi gels (ThermoFisher Scientific, WG1403A), followed by the transfer of the proteins onto nitrocellulose membranes (EMD Millipore). The membranes were blocked for 1 h prior to incubation with the primary antibodies using 5% Milk TBST. Membranes were probed for Brd2 (Abcam, Ab139690, 1:1000), Brd3 (Abcam, Ab50818, 1:4000), Brd4 (Abcam, Ab128874, 1:1000) or our polyclonal Brd4^BD2 L387A antibody. […] All western blots were analysed for band intensities using Image Lab from Bio-Rad (LI-COR, Biosciences). The data extracted from these blots were then plotted and analysed using Prism (v. 8.2.0, GraphPad).

[4] = molecular target: T4, VHL (VCB protein) (Homo sapiens, UniProt P40337); experiment: Fluorescence polarization competitive binding assay, binary binding; conditions: compound alone; displacement of HIF-1a peptide probe; read-out: binary affinity to VHL Kd
T4 construct: N-terminally Hiss-tagged VHL (54-213); His6 (N, cleaved yes); made in house; host or cells: E. coli
Protocol: as §2, §3

[5] = test system: untagged Brd2 and endogenous Brd3 and Brd4; experiment: Off-target degradation of endogenous BET proteins (western blot) in BromoTag-Brd2 HEK293 cells; type: cell-based, human; conditions: 1 nM to 10 μM; 6 h
Protocol: Dose-response Degradation Assays. All dose-response degradation assays were performed on the genotype verified heterozygous BromoTag-Brd2 HEK293 cell line. Heterozygous BromoTag-Brd2 HEK293 cells were plated at a density of 5×10^5 cells per well of a six healthy plate a day before initiation of the titration experiment. PROTAC compounds were dissolved in DMSO at a concentration of 10 mM, from these stock concentrations, PROTAC compounds were diluted to appropriate concentrations using DMSO in the range of 10 μM-1 nM. The compounds were then added to a 2 mL of DMEM (Invitrogen, Carlsebad, CA, USA) supplemented with 10% (v/v) Fetal bovine serum (FBS) (Thermo Fisher, Waltham, MA, USA) and 1% (v/v) penicillin/streptomycin (pen/strep) (#15140122, Thermo Fisher, Waltham, MA, USA) and added to the cells at initiation of the experiment. Control compounds such as MZ1, cis-MZ1 were similarly dissolved in DMSO to the appropriate concentration. All titration experiment were performed for a total of 6 hours prior to being harvested and were kept at 37° C., 5% CO2, and 95% humidity once treatment was applied until right before harvesting. Cells were washed twice with PBS before being harvested.
as §1
Development of a Knock-in Cell Line with BromoTag fused to endogenous Brd2 using CRISPR. […] To this end, the endogenous BET family protein Brd2 was chosen as a model target, due to the availability of well-established antibody for Brd2 detection, and expression of a single protein isoform as well detected band in the western blot (Filippakopoulos, P.; Knapp, S., Nat Rev Drug Discov. 2014, 13 (5), 337-356). […]

[6] = molecular target: T3, BromoTag-Brd2; experiment: Dose-response degradation assay (western blot, 6 h) in heterozygous BromoTag-Brd2 HEK293 cells; type: cell-based; conditions: 6 h; for pDC50: 8-point 10 μM-1 nM, mean (±S.E.) of two repeats
Protocol: Dose-response Degradation Assays. All dose-response degradation assays were performed on the genotype verified heterozygous BromoTag-Brd2 HEK293 cell line. Heterozygous BromoTag-Brd2 HEK293 cells were plated at a density of 5×10^5 cells per well of a six healthy plate a day before initiation of the titration experiment. PROTAC compounds were dissolved in DMSO at a concentration of 10 mM, from these stock concentrations, PROTAC compounds were diluted to appropriate concentrations using DMSO in the range of 10 μM-1 nM. […] Control compounds such as MZ1, cis-MZ1 were similarly dissolved in DMSO to the appropriate concentration. […] Cells were washed twice with PBS before being harvested.
Western Blotting. […] The membranes were blocked for 1 h prior to incubation with the primary antibodies using 5% Milk TBST. […] Following overnight incubation with the primary antibodies at 4° C., the membranes were incubated with secondary antibodies (Anti-rabbit, Abcam AB216773, 1:5000 or anti-mouse, Abcam AB216774, 1:5000) and hFAB™ Rhodamine Anti-Tubulin Antibody (Biorad, 12004165, 1:10000) for one h and then imaged with a Bio-Rad imager (LI-COR Biosciences). All western blots were analysed for band intensities using Image Lab from Bio-Rad (LI-COR, Biosciences). The data extracted from these blots were then plotted and analysed using Prism (v. 8.2.0, GraphPad).

| Structure (SMILES) | off-target degradation of Brd3 ([1]; at 100-1,000 nM) | Kd [2] [µM] | extent of BromoTag-Brd2 degradation in the time course [3] | Kd [4] [µM] | off-target degradation of Brd3 ([1]; at 1 μM, 6 h) | off-target degradation of untagged Brd2 or the other endogenous BET proteins [5] | DC50 ([6]; range over the two antibodies) [µM] | pDC50 ([6]; Ab: Brd4^BD2 L387A, single stereoisomers) | pDC50 ([6]; Ab: BromoTag-Brd2, single stereoisomers) | Dmax ([6]; HEK293, Ab: Brd4^BD2 L387A, single stereoisomers) [%] |
| --- | --- | --- | --- | --- | --- | --- | --- | --- | --- | --- |
| CC[C@@H](C(=O)OCCOCCCOCC(=O)N[C@H](C(=O)N1C[C@H](O)C[C@H]1C(=O)N[C@@H](C)c1ccc(-c2scnc2C)cc1)C(C)(C)C)[C@@H]1N=C(c2ccc(Cl)cc2)c2c(sc(C)c2C)-n2c(C)nnc21 (single isomer, unassigned) [AGB2 (47)] | minor off-target degradation | 0.012 | near complete target degradation | 0.045 | – | – | – | – | – | – |
| CC[C@@H](C(=O)OCCOCCCOCC(=O)N[C@H](C(=O)N1C[C@H](O)C[C@H]1C(=O)N[C@@H](C)c1ccc(-c2scnc2C)cc1)C(C)(C)C)[C@@H]1N=C(c2ccc(Cl)cc2)c2c(sc(C)c2C)-n2c(C)nnc21 (relative stereo) [ET-OARV-771 (25), 2-(3-(2-(((S)-1-((2S,4R)-4-hydroxy-2-(((S)-1-(4-(4-methylthiazol-5-yl)phenyl)ethyl)carbamoyl)pyrrolidin-1-yl)-3,3-dimethyl-1-oxobutan-2-yl)amino)-2-oxoethoxy)propoxy)ethyl (R*)-2-((S*)-4-(4-chlorophenyl)-2,3,9-trimethyl-6H-thieno[3,2-f][1,2,4]triazolo[4,3-a][1,4]diazepin-6-yl)butanoate] | – | – | – | – | minor off-target degradation | no observable off-target degradation | – | – | – | – |
| CC[C@@H](C(=O)NCCOCCOCCOCC(=O)N[C@H](C(=O)N1C[C@H](O)C[C@H]1C(=O)NCc1ccc(-c2scnc2C)cc1)C(C)(C)C)[C@@H]1N=C(c2ccc(Cl)cc2)c2c(sc(C)c2C)-n2c(C)nnc21 (single isomer, unassigned) [AGB3 (48)] | – | 0.009 | ~80% | 0.102 | – | – | 0.21 to 0.29 | 6.5 ± 0.3 | 6.7 ± 0.1 | 92 |
